BigSolDB 2.1

Nc1nc(=O)[nH]cc1F
solubility (mole fraction)
Conditions | in 1,4-dioxane | in 2-butanone | in DMF | in DMSO | in acetone | in acetonitrile | in ethyl acetate | in isopropanol | in n-butanol | in n-propanol
283.15 K | 1.13e-05 | 4.37e-05 | 0.00113 | 0.00559 | 6.9e-05 | 7e-06 | 3.5e-06 | 0.00016 | 0.000282 | 0.000222
288.15 K | 1.51e-05 | 5.91e-05 | 0.00127 | 0.00611 | 8.62e-05 | 9.6e-06 | 4.5e-06 | 0.000204 | 0.000332 | 0.000272
293.15 K | 1.92e-05 | 7.74e-05 | 0.00146 | 0.00675 | 0.000107 | 1.31e-05 | 6.2e-06 | 0.000253 | 0.000399 | 0.000334
298.15 K | 2.37e-05 | 9.76e-05 | 0.00169 | 0.00754 | 0.000131 | 1.77e-05 | 8.6e-06 | 0.000314 | 0.000477 | 0.000406
303.15 K | 2.82e-05 | 0.000121 | 0.00193 | 0.00838 | 0.000158 | 2.23e-05 | 1.14e-05 | 0.000382 | 0.000567 | 0.000489
308.15 K | 3.43e-05 | 0.000149 | 0.0022 | 0.00932 | 0.000192 | 2.84e-05 | 1.46e-05 | 0.000461 | 0.000674 | 0.000577
313.15 K | 4.17e-05 | 0.000184 | 0.00252 | 0.0103 | 0.000224 | 3.58e-05 | 1.93e-05 | 0.000548 | 0.000787 | 0.000677
318.15 K | 5.08e-05 | 0.000223 | 0.00287 | 0.0115 | 0.000273 | 4.5e-05 | 2.45e-05 | 0.000643 | 0.000916 | 0.000792
323.15 K | 6.07e-05 | 0.000271 | 0.00329 | 0.0129 | 0.000321 | 5.67e-05 | 3.11e-05 | 0.000757 | 0.00107 | 0.000923
